Measurements taken from patent US9770026B2, “Substituted pyrimidine compound and uses thereof” (Shenyang Sinochem Agrochemicals R&D Co., Ltd., priority 2012, dated 2017).

What was measured:
wheat powdery mildew = assay: protectant activity in vivo against wheat powdery mildew; details: protectant activity
corn rust = assay: protectant activity in vivo against corn rust; details: for pest or weed control at 400 µg/mL: read-out: control effect against corn rust (%), 400 mg/L
cucumber downy mildew = assay: protectant activity in vivo against cucumber downy mildew; details: for control effect against cucumber downy mildew (%) / pest or weed control at 3.125 µg/mL / pest or weed control at 6.25 µg/mL / pest or weed control at 12.5 µg/mL / pest or weed control at 25 µg/mL / pest or weed control at 50 µg/mL / pest or weed control at 100 µg/mL / pest or weed control at 400 µg/mL: protectant activity; for pest or weed control at 3.125 µg/mL: read-out: control effect against cucumber downy mildew (%), 3.125 mg/L; for pest or weed control at 6.25 µg/mL: read-out: control effect against cucumber downy mildew (%), 6.25 mg/L; for pest or weed control at 12.5 µg/mL: read-out: control effect against cucumber downy mildew (%), 12.5 mg/L; for pest or weed control at 25 µg/mL: read-out: control effect against cucumber downy mildew (%), 25 mg/L; for pest or weed control at 50 µg/mL: read-out: control effect against cucumber downy mildew (%), 50 mg/L; for pest or weed control at 100 µg/mL: read-out: control effect against cucumber downy mildew (%), 100 mg/L; for pest or weed control at 400 µg/mL: read-out: control effect against cucumber downy mildew (%), 400 mg/L
armyworm = assay: bioactivity test against armyworm, airbrush spray; assay type: in vivo
Procedure: (§1) Compounds were dissolved in mixed solvent (acetone:methanol=1:1), and diluted to required concentration with water containing 0.1% of tween 80.
(§2) Diamond back moth, armyworm, peach aphid and carmine spider mite were used as targets and the method of spraying by airbrush was used for determination of insecticidal biassays.
(§3) The method of spraying by airbrush: The corn leaves were made into plates of 2 cm diameter by use of punch. A test solution (0.5 ml) was sprayed by airbrush at the pressure of 0.7 kg/cm^2 to both sides of every plate. 10 Second instar larvae were put into the petri-dishes after the leaf disc air-dried and 3 replicates were set for each treatment. Then the insects were maintained in observation room (25 °C, 60˜70% R.H.). Scores were conducted and mortalities were calculated after 72 h.

Diamond back moth = assay: insecticidal activity against diamond back moth, airbrush spray; assay type: in vivo
Procedure: as §1, §2
as §3, with “The cabbage” for “The corn”, “room (25° C.,” for “room (25 °C,”, “72 hrs.” for “72 h.”

[1] = test system: Green peach aphids (Myzus Persicae Sulzer); assay: bioactivity test against green peach aphid, airbrush foliar spray; assay type: in vivo; details: for pest or weed control at 2.5 µg/mL: 2.5 mg/L; for pest or weed control at 5 µg/mL: 5 mg/L
Method in brief: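 Death rate was scored at 48 hrs, held at 25±1 C and 60±5% RH, following airbrush foliar spray (0.5 mL, 10 psi) onto cabbage leaf discs bearing about 15-30 aphids. Test solutions: compound dissolved in 1:1 acetone:methanol, brought to concentration with 0.1% tween 80 water.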

carmine spider mite = assay: bioactivity test against carmine spider mite, airbrush spray; assay type: in vivo; details: Tetranychus cinnabarinus, 72 h, mortality after 72 hrs
Method in brief: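 Broadbean seedlings infested with adult mites were sprayed with compound (acetone/methanol stock diluted in 0.1% Tween 80 water) by airbrush at 0.7 kg/cm^2, 0.5 ml. Three replicates were run. Mortality was scored after 72 hrs.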

[2] = Zea mays, 168 h, protectant activity
[3] = 72 h, 600 mg/L, read-out: Insecticidal activity against armyworm (%)
[4] = Myzus persicae, foliar, 48 h, contrastive test, read-out: Insecticidal activity against peach aphid (%)
[5] = Myzus persicae, foliar, 48 h, 10 mg/L, contrastive test, read-out: Insecticidal activity against peach aphid (%)
[6] = Myzus persicae, foliar, 48 h, 100 mg/L, contrastive test, read-out: Insecticidal activity against peach aphid (%)
[7] = Myzus persicae, foliar, 48 h, 600 mg/L, contrastive test, read-out: Insecticidal activity against peach aphid (%)

CCc1ncnc(NC(C)c2ccc(Oc3ccc(F)cc3)nc2)c1Cl (centres unmarked) [CK9, reference compound]
control effect against wheat powdery mildew (%) (wheat powdery mildew; 6.25 mg/L): 0%
control effect against wheat powdery mildew (%) (wheat powdery mildew; 25 mg/L): 0%
control effect against wheat powdery mildew (%) (wheat powdery mildew; 100 mg/L): 0%
control effect against wheat powdery mildew (%) (wheat powdery mildew; 400 mg/L): 100%
control effect against corn rust (%) (corn rust; 6.25 mg/L, protectant activity): 0%
control effect against corn rust (%) (corn rust; 25 mg/L, protectant activity): 20%
control effect against corn rust (%) (corn rust; 100 mg/L, protectant activity): 100%
control effect against corn rust (%) (corn rust; 400 mg/L, protectant activity): 100%
control effect against cucumber downy mildew (%) (cucumber downy mildew; 25 mg/L): 70%
control effect against cucumber downy mildew (%) (cucumber downy mildew; 50 mg/L): 90%
control effect against cucumber downy mildew (%) (cucumber downy mildew; 100 mg/L): 98%
control effect against cucumber downy mildew (%) (cucumber downy mildew; 400 mg/L): 100%
Insecticidal activity against armyworm (%) (armyworm; 600 mg/L): 40%
Insecticidal activity against diamond back moth (%) (Diamond back moth; 10 mg/L): 25%
Insecticidal activity against diamond back moth (%) (Diamond back moth; 100 mg/L): 45%
Insecticidal activity against diamond back moth (%) (Diamond back moth; 600 mg/L): 100%
Insecticidal activity against peach aphid (%) ([1]; 10 mg/L, contrastive test): 23%
Insecticidal activity against peach aphid (%) ([1]; 100 mg/L, contrastive test): 79%
Insecticidal activity against peach aphid (%) ([1]; 600 mg/L, contrastive test): 100%

CCc1ncnc(NCc2ccc(Oc3ccc(C(F)(F)F)cn3)cc2)c1Cl [CK42, reference compound]
pest or weed control at 6.25 µg/mL (wheat powdery mildew; Triticum aestivum, 168 h, read-out: control effect against wheat powdery mildew (%), 6.25 mg/L): 50%
pest or weed control at 25 µg/mL (wheat powdery mildew; Triticum aestivum, 168 h, read-out: control effect against wheat powdery mildew (%), 25 mg/L): 60%
pest or weed control at 100 µg/mL (wheat powdery mildew; Triticum aestivum, 168 h, read-out: control effect against wheat powdery mildew (%), 100 mg/L): 70%
pest or weed control at 400 µg/mL (wheat powdery mildew; Triticum aestivum, 168 h, read-out: control effect against wheat powdery mildew (%), 400 mg/L): 100%
pest or weed control at 400 µg/mL (corn rust; [2]): 70%
pest or weed control at 3.125 µg/mL (cucumber downy mildew; Cucumis sativus, 168 h): 0%
pest or weed control at 6.25 µg/mL (cucumber downy mildew; Cucumis sativus, 168 h): 0%
pest or weed control at 12.5 µg/mL (cucumber downy mildew; Cucumis sativus, 168 h): 0%
pest or weed control at 25 µg/mL (cucumber downy mildew; Cucumis sativus, 168 h): 20%
pest or weed control at 50 µg/mL (cucumber downy mildew; Cucumis sativus, 168 h): 100%
pest or weed control at 100 µg/mL (cucumber downy mildew; Cucumis sativus, 168 h): 100%
pest or weed control at 400 µg/mL (cucumber downy mildew; Cucumis sativus, 168 h): 100%
pest or weed control at 600 µg/mL (armyworm; [3]): 0%
pest or weed control at 600 µg/mL (Diamond back moth; 72 h, 600 mg/L): 0%
pest or weed control at 2.5 µg/mL [1, 4]: 0%
pest or weed control at 5 µg/mL [1, 4]: 17%
pest or weed control at 10 µg/mL [1, 5]: 20%
pest or weed control at 100 µg/mL [1, 6]: 67%
pest or weed control at 600 µg/mL [1, 7]: 100%

FC(F)c1ncnc(NCCc2ccc(Oc3ccc(Cl)cc3)cc2)c1Cl [II-8915]
pest or weed control at 0.4 µg/mL (corn rust; Zea mays, 168 h, read-out: control effect against corn rust (%), 0.4 mg/L, protectant activity): 30%
pest or weed control at 1.6 µg/mL (corn rust; Zea mays, 168 h, read-out: control effect against corn rust (%), 1.6 mg/L, protectant activity): 80%
pest or weed control at 6.25 µg/mL (corn rust; Zea mays, 168 h, read-out: control effect against corn rust (%), 6.25 mg/L, protectant activity): 100%
pest or weed control at 25 µg/mL (corn rust; Zea mays, 168 h, read-out: control effect against corn rust (%), 25 mg/L, protectant activity): 100%
pest or weed control at 100 µg/mL (corn rust; Zea mays, 168 h, read-out: control effect against corn rust (%), 100 mg/L, protectant activity): 100%
pest or weed control at 400 µg/mL (corn rust; [2]): 100%
pest or weed control at 6.25 ppm (corn rust; Zea mays, 168 h, read-out: protectant activity against corn rust in vivo, 6.25 ppm): 100%
pest or weed control at 25 ppm (corn rust; Zea mays, 168 h, read-out: protectant activity against corn rust in vivo, 25 ppm): 100%
pest or weed control at 100 ppm (corn rust; Zea mays, 168 h, read-out: protectant activity against corn rust in vivo, 100 ppm): 100%
pest or weed control at 400 ppm (corn rust; Zea mays, 168 h, read-out: protectant activity against corn rust in vivo, 400 ppm): 100%
pest or weed control at 3.125 µg/mL (cucumber downy mildew; Cucumis sativus, 168 h): 20%
pest or weed control at 6.25 µg/mL (cucumber downy mildew; Cucumis sativus, 168 h): 90%
pest or weed control at 12.5 µg/mL (cucumber downy mildew; Cucumis sativus, 168 h): 95%
pest or weed control at 25 µg/mL (cucumber downy mildew; Cucumis sativus, 168 h): 99%
pest or weed control at 50 µg/mL (cucumber downy mildew; Cucumis sativus, 168 h): 100%
pest or weed control at 100 µg/mL (cucumber downy mildew; Cucumis sativus, 168 h): 100%
pest or weed control at 400 µg/mL (cucumber downy mildew; Cucumis sativus, 168 h): 100%
pest or weed control at 6.25 ppm (cucumber downy mildew; Cucumis sativus, 168 h, read-out: protectant activity against cucumber downy mildew in vivo, 6.25 ppm): 80 to 99%
pest or weed control at 12.5 ppm (cucumber downy mildew; Cucumis sativus, 168 h, read-out: protectant activity against cucumber downy mildew in vivo, 12.5 ppm): 80 to 99%
pest or weed control at 25 ppm (cucumber downy mildew; Cucumis sativus, 168 h, read-out: protectant activity against cucumber downy mildew in vivo, 25 ppm): 80 to 99%
pest or weed control at 50 ppm (cucumber downy mildew; Cucumis sativus, 168 h, read-out: protectant activity against cucumber downy mildew in vivo, 50 ppm): 80 to 99%
pest or weed control at 100 ppm (cucumber downy mildew; Cucumis sativus, 168 h, read-out: protectant activity against cucumber downy mildew in vivo, 100 ppm): 100%
pest or weed control at 400 ppm (cucumber downy mildew; Cucumis sativus, 168 h, read-out: protectant activity against cucumber downy mildew in vivo, 400 ppm): 100%
pest or weed control at 100 ppm (carmine spider mite; 100 ppm): 100%
pest or weed control at 600 ppm (carmine spider mite; 600 ppm): 100%
pest or weed control at 10 µg/mL (armyworm; 72 h, 10 mg/L, read-out: Insecticidal activity against armyworm (%)): 44%
pest or weed control at 100 µg/mL (armyworm; 72 h, 100 mg/L, read-out: Insecticidal activity against armyworm (%)): 95%
pest or weed control at 600 µg/mL (armyworm; [3]): 100%
pest or weed control at 100 ppm (armyworm; 72 h, 100 ppm, mortality after 72 h): 80 to 99%
pest or weed control at 600 ppm (armyworm; 72 h, 600 ppm, mortality after 72 h): 100%
pest or weed control at 600 ppm (Diamond back moth; 72 h, 600 ppm, mortality after 72 hrs, read-out: control (test results against diamond back moth)): 100%
pest or weed control at 1.25 µg/mL ([1]; Myzus persicae, foliar, 48 h, 1.25 mg/L, contrastive test, read-out: Insecticidal activity against peach aphid (%)): 100%
pest or weed control at 2.5 µg/mL [1, 4]: 100%
pest or weed control at 5 µg/mL [1, 4]: 100%
pest or weed control at 10 µg/mL [1, 5]: 100%
pest or weed control at 100 µg/mL [1, 6]: 100%
pest or weed control at 600 µg/mL [1, 7]: 100%
pest or weed control at 2.5 ppm ([1]; Myzus persicae, foliar, 48 h, 2.5 ppm, death rate after 48 hrs): 100%
pest or weed control at 5 ppm ([1]; Myzus persicae, foliar, 48 h, 5 ppm, death rate after 48 hrs): 100%
pest or weed control at 10 ppm ([1]; Myzus persicae, foliar, 48 h, 10 ppm, death rate after 48 hrs): 100%
pest or weed control at 100 ppm ([1]; Myzus persicae, foliar, 48 h, 100 ppm, death rate after 48 hrs): 100%
pest or weed control at 600 ppm ([1]; Myzus persicae, foliar, 48 h, 600 ppm, death rate after 48 hrs): 100%
